Each structure is given as a SMILES string.

Data set [1] has as its target T1, Dual specificity protein kinase TTK (Homo sapiens, UniProt P33981).
T1 sequence (P33981 whole entry): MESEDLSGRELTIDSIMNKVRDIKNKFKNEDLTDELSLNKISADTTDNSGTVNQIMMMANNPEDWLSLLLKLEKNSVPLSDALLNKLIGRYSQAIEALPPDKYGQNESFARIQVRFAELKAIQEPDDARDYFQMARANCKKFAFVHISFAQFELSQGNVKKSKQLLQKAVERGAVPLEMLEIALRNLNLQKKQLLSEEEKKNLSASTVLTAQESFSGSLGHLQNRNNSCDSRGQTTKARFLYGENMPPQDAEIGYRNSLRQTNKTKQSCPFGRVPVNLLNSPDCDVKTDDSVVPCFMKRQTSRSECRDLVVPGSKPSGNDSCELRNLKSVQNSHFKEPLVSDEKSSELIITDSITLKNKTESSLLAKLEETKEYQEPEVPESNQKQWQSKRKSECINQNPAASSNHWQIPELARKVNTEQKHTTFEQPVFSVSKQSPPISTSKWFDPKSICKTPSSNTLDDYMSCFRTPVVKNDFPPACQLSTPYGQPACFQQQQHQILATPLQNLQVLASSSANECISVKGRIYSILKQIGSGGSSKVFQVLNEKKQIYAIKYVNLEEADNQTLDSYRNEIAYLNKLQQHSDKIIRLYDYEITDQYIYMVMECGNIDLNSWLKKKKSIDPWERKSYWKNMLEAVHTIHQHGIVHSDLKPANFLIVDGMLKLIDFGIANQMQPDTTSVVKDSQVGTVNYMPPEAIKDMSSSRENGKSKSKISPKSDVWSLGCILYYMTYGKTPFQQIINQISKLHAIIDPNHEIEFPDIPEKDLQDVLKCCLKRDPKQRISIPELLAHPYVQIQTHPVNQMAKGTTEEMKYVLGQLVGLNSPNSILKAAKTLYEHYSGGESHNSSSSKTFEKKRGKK
Nature of the data set: Binding affinity to wild-type human partial length TTK (N505 to V798 residues) expressed in bacterial expression system by active site-directed competition binding based Kinomescan method.

Data set [2] is described as follows: Cmax in Sprague-Dawley rat at 5 mg/kg, iv. In kind it is ADME, organism-based. Also on record: route intravenous, dose 5 mg/kg. Conditions: in vivo.
Data set [3] is described as follows: AUC (0 to infinity) in Sprague-Dawley rat at 25 mg/kg, po. Also noted: time infinity, route oral, dose 25 mg/kg. In kind it is ADME, organism-based. Conditions: in vivo.
A short description of data set [4]: Half life in Sprague-Dawley rat at 25 mg/kg, po. In kind it is ADME, organism-based. Conditions: in vivo.
Data set [5] is described as follows: AUC (0 to infinity) in Sprague-Dawley rat at 5 mg/kg, iv. In kind it is ADME, organism-based. Also on record: route intravenous, time infinity, dose 5 mg/kg. As to conditions: in vivo.
A short description of data set [6]: Oral bioavailability in Sprague-Dawley rat at 25 mg/kg. Format: ADME, organism-based. Conditions: in vivo.
A short description of data set [7]: Cmax in Sprague-Dawley rat at 25 mg/kg, po. Format: ADME, organism-based. Also on record: route oral, dose 25 mg/kg. As to conditions: in vivo.
Data set [8] in a line: Half life in Sprague-Dawley rat at 5 mg/kg, iv. Conditions: in vivo. Format: ADME, organism-based.
Data set [9] deals with T1, Dual specificity protein kinase TTK. Nature of the data set: Inhibition of recombinant full-length human TTK using MBP as substrate incubated for 40 mins in presence of [gamma33P]ATP by scintillation counting based radiometry assay relative to control.
A short description of data set [10]: Clearance in Sprague-Dawley rat at 5 mg/kg, iv. Conditions: in vivo. Format: ADME, organism-based.
The test system of the next data set is HCT-116. Put plainly: Antitumor activity at human HCT-116 cells xenografted in CB17-SCID mouse assessed as tumor growth inhibition at 20 mg/kg, ip administered once weekly for 16 days relative to control. Format: functional. Conditions: HCT-116, ip, 384 h, time 16 day, read-out: TGI. (In general: In xenograft studies the graft and the host belong to different species.)

A word on the Kd: it is the equilibrium constant for the complex coming apart. The low end stands for a tighter complex, the high end for a looser complex. As to `COc1cc(N2CCN(C)CC2)ccc1Nc1ncc2c(C)cc(=O)n([C@H]3CC[C@@H](NC(=O)C45CC6CC(CC(C6)C4)C5)CC3)c2n1`, the affinity in data set [1], expressed as Kd, was 0.56 nM.

As usually defined, the Cmax is the maximum level reached in the sampled fluid or tissue. Usually AUC(0-inf) stands for the area under the concentration-time curve extrapolated to infinity. Low readings indicate less exposure, high ones more exposure. Usually half-life stands for how long it takes for the measured level to halve. Broadly, the bioavailability is dose-corrected exposure relative to a reference, in per cent. A higher bioavailability goes with good availability. Usually IC50 stands for the midpoint of a concentration-inhibition curve. The term clearance denotes the rate of elimination divided by the concentration. As for `COc1cc(N2CCN(C)CC2)ccc1Nc1ncc2cc(C)c(=O)n([C@H]3CC[C@@H](NC(=O)C4CCCCC4)CC3)c2n1`, the figures for the Cmax in [2] and in [7] were 4740 ng/mL and 2300 ng/mL, respectively. Also, the AUC(0-inf) amounted to 33300 ng·h/mL in data set [3] and 15500 ng·h/mL in data set [5]. Besides, the half-life in data set [4] was 7.62 h; in data set [8], 6.2 h. This molecule displayed a bioavailability in data set [6] of 39.6%. For the same molecule, the IC50 in [9] was 20 nM. Further, in [10], the clearance is 5.61 mL/min/kg. This molecule registered a Kd in data set [1] of 0.17 nM.

On to `CCC(=O)N[C@H]1CC[C@@H](n2c(=O)cc(C)c3cnc(Nc4ccc(N5CCN(C)CC5)cc4OC)nc32)CC1`, for which the Kd in [1] was determined as 0.71 nM.

In [1], `COc1cc(N2CCN(C)CC2)ccc1Nc1ncc2c(C)cc(=O)n([C@H]3CC[C@@H](NCC4CC4)CC3)c2n1` gave a Kd of 6.1 nM.

On to `COc1cc(N2CCN(C)CC2)ccc1Nc1ncc2c(C)cc(=O)n([C@H]3CC[C@@H](NC(=O)c4ccccc4)CC3)c2n1`, for which the Kd in data set [1] was 0.3 nM.

`CCC(=O)N[C@H]1CC[C@@H](n2c(=O)ccc3cnc(Nc4ccc(N5CCN(C)CC5)cc4OC)nc32)CC1` displayed a Kd in data set [1] of 0.41 nM.

`CCC(=O)N1CC[C@@H](n2c(=O)cc(C)c3cnc(Nc4ccc(N5CCN(C)CC5)cc4OC)nc32)C1` showed a Kd in [1] of 310 nM.

In the case of `CCC(=O)N[C@H]1CC[C@@H](n2c(=O)cc(-c3ccccc3)c3cnc(Nc4ccc(N5CCN(C)CC5)cc4OC)nc32)CC1`, the Kd in data set [1] stood at 825 nM.

Regarding `CCC(=O)N[C@H]1CC[C@@H](n2c(=O)cc(C)c3cnc(Nc4ccc(N5CCN(C)CC5)c(OC)c4)nc32)CC1`, binding in [1] was characterised by a dissociation constant (Kd) of 4.2 nM.

Consider `COc1cc(N2CCN(C)CC2)ccc1Nc1ncc2c(C)cc(=O)n([C@H]3CC[C@@H](NC(=O)C4CC4)CC3)c2n1`, for which, in data set [1], the Kd worked out at 0.41 nM.

In data set [1], `CCC(=O)N1CCC(n2c(=O)cc(C)c3cnc(Nc4ccc(N5CCN(C)CC5)cc4OC)nc32)CC1` showed a Kd of 9.3 nM.

Turning to `CCC(=O)N1CCC[C@H](n2c(=O)cc(C)c3cnc(Nc4ccc(N5CCN(C)CC5)cc4OC)nc32)C1`, in data set [1], the Kd was determined as 200 nM.

As for `COc1cc(N2CCN(C)CC2)ccc1Nc1ncc2c(C)cc(=O)n([C@H]3CC[C@@H](NC(=O)C4CCCC4)CC3)c2n1`, the half-inhibitory concentration (IC50) in data set [9] turned out to be 19 nM. Besides, the Kd in [1] was 0.12 nM.

As for `COc1cc(N2CCN(C)CC2)ccc1Nc1ncc2c(C)cc(=O)n([C@H]3CC[C@@H](NC(=O)C(C)(C)C)CC3)c2n1`, binding in data set [1] was put at a Kd of 0.2 nM.

Regarding `CCC(=O)N[C@H]1CC[C@@H](n2c(=O)cc(C3CC3)c3cnc(Nc4ccc(N5CCN(C)CC5)cc4OC)nc32)CC1`, the IC50 in data set [9] is 50 nM. This molecule also showed a Kd in [1] of 7.9 nM.

`COc1cc(N2CCN(C)CC2)ccc1Nc1ncc2c(C)cc(=O)n([C@H]3CC[C@@H](NC(C)=O)CC3)c2n1` came in with a Kd in data set [1] of 0.72 nM.

Consider `CCC(=O)N[C@H]1CC[C@@H](n2c(=O)cc(C)c3cnc(Nc4ccc(N5CCN(C)CC5)c(C)c4)nc32)CC1`, for which, in data set [1], the Kd was found to be 3.9 nM.

For `CCC(=O)N[C@H]1CC[C@@H](n2c(=O)c(C)cc3cnc(Nc4ccc(N5CCN(C)CC5)cc4OC)nc32)CC1`, binding in data set [1] was put at a Kd of 0.29 nM.

Turning to `CC(=O)O[C@H]1C(=O)[C@@]2(C)[C@H]([C@H](OC(=O)c3ccccc3)[C@]3(O)C[C@H](OC(=O)[C@H](O)[C@@H](NC(=O)c4ccccc4)c4ccccc4)C(C)=C1C3(C)C)[C@]1(OC(C)=O)CO[C@@H]1C[C@@H]2O` [PACLITAXEL], the inhibition in vivo at 20 mg/kg with HCT-116 was found to be 52%.

In turn, `COc1cc(N2CCN(C)CC2)ccc1Nc1ncc2c(C)cc(=O)n([C@H]3CC[C@@H](NC(=O)c4cccc5ccccc45)CC3)c2n1` registered a Kd in data set [1] of 1.1 nM.

In turn, `CCC(=O)N[C@H]1CC[C@@H](n2c(=O)cc(C)c3cnc(Nc4ccc(N5CCN(C)CC5)cc4C)nc32)CC1` had a Kd in data set [1] of 0.63 nM.

Regarding `COc1cc(N2CCN(C)CC2)ccc1Nc1ncc2cc(C)c(=O)n([C@H]3CC[C@@H](NC(=O)C4CCCC4)CC3)c2n1`, the IC50 in [9] was 11 nM. This molecule displayed a Kd in data set [1] of 0.17 nM.

Turning to `CCC(=O)N[C@H]1CC[C@H](n2c(=O)cc(C)c3cnc(Nc4ccc(N5CCN(C)CC5)cc4OC)nc32)CC1`, in data set [1], the Kd came out at 2.8 nM.

The molecule `COc1cc(N2CCN(C)CC2)ccc1Nc1ncc2c(C)cc(=O)n([C@H]3CC[C@@H](NC(=O)C(C)C)CC3)c2n1` gave a Kd in data set [1] of 0.5 nM.

Consider `CCC(=O)N1CCC[C@@H](n2c(=O)cc(C)c3cnc(Nc4ccc(N5CCN(C)CC5)cc4OC)nc32)C1`, for which the Kd in data set [1] is 250 nM.

`C=CC(=O)N1CC[C@H](n2c(=O)cc(C)c3cnc(Nc4ccc(N5CCN(C)CC5)cc4OC)nc32)C1` yielded a Kd in data set [1] of 190 nM.

In data set [1], `CCC(=O)N1CC[C@H](n2c(=O)cc(C)c3cnc(Nc4ccc(N5CCN(C)CC5)cc4OC)nc32)C1` yielded a Kd of 145 nM.

Molecule `CCC(=O)N[C@H]1CC[C@@H](n2c(=O)cc(CC)c3cnc(Nc4ccc(N5CCN(C)CC5)cc4OC)nc32)CC1` showed an equilibrium dissociation constant (Kd) in [1] of 1.5 nM.

The molecule `CCC(=O)N1CC(n2c(=O)cc(C)c3cnc(Nc4ccc(N5CCN(C)CC5)cc4OC)nc32)C1` gave a Kd in [1] greater than 1000 nM.

For the origin of these results see ChEMBL document CHEMBL4818999, “Pyrido[2, 3-d]pyrimidin-7(8H)-ones as new selective orally bioavailable Threonine Tyrosine Kinase (TTK) inhibitors” (Eur J Med Chem, 2021).
